Measured values reported in US10591461B2, “Method of drug design and optimisation utilizing stereochemical mimicry” (The Trustees of the University of Pennsylvania, priority 2016, dated 2020).
Ends that are not written are not given here.

Columns and labels:
[1] = test system: neuro-2a cells; experiment: Confocal microscopy imaging of neuronal cells (neurite outgrowth, qualitative); type: cell-based, Mouse; conditions: for number of projections (increase from no treatment): confocal images, FIG. 7
Description: (§1) Once the three compounds were synthesized the neurite outgrowth assay was used in order to determine the effectiveness of the aza-proline derivatives in comparison with the Glyx-13. Mouse neuroblastoma cells (Neuro-2a cells) were used in order to measure the increase in neurite growth between untreated cells and those treated with the test compounds. A plate reader assay was used where 9,000 cells/cm^2 were treated with the compounds at 0.01, 0.10, and 1.00 μM concentrations for 48 hours. Several controls were used as well, including wells with no cell and compound, cells with no compound (just water), and wells with no cells and water. After treatment with the compounds, the cells were washed in DPBS buffer and treated with cell viability indicator and a membrane stain for 20 minutes before being washed again and treated with a background suppression dye. The plate reader assay was inconclusive for some of the concentrations of the compounds, but the 0.10 μM data is promising. (FIG. 6)

[2] = test system: Mouse neuroblastoma cells (Neuro-2a cells); type: cell-based; conditions: 0.10 μM, 48 hours, vs untreated cells; FIG. 6; preliminary data
Description: as §1

Row | Molecule | number of projections (increase from no treatment) [1] | size of the neurites (membrane stain) [2] | effectiveness compared with control compound Glyx-13 (neuronal projections and dendrite length) ([1]; confocal microscope data)
1 | C[C@@H](O)[C@H](N)C(=O)N1CCCN1C(=O)N1CCC[C@H]1C(=O)N[C@H](C(N)=O)[C@@H](C)O [Glyx-1] | even more noticeable | – | –
2 | C[C@@H](O)[C@H](N)C(=O)N1CCC[C@H]1C(=O)N1CCCN1C(=O)N[C@H](C(N)=O)[C@@H](C)O [Glyx-2] | even more noticeable | significant increase | significantly more effective
3 | Thr-Pro-Pro-Thr-NH2 (TPPT-NH2) [Glyx-13, tetrapeptide, parent and control compound, NMDA receptor glycine-site partial agonist, reference compound] | significant increase | – | –
